Numbers after ± are expanded uncertainties.
Conditions: Liquid, Closed cell (Static) method

FC(F)C(F)F [1,1,2,2-tetrafluoroethane]
vapor or sublimation pressure (303.15 K): 613.8 ± 2.1 kPa
vapor or sublimation pressure (313.15 K): 817.1 ± 2.7 kPa
vapor or sublimation pressure (323.15 K): 1065.9 ± 3.5 kPa
vapor or sublimation pressure (333.15 K): 1368.5 ± 4.5 kPa
vapor or sublimation pressure (343.15 K): 1730.2 ± 5.7 kPa
